{"source": "patent US20250019373A1", "about": "“ARYL OR HETEROARYL DERIVATIVE, AND PHARMACEUTICAL COMPOSITION COMPRISING SAME AS ACTIVE INGREDIENT FOR PREVENTION OR TREATMENT OF KINASE-RELATED DISEASES” (VORONOI INC., priority 2021, published 2025)"}
{"tested_on": "HT-29 cells", "test": "Cell necrosis inhibitory activity under necroptosis-inducing conditions (TNF-α, Z-VAD-FMK, LCL161) in HT-29 cells, Cell Titer-Glo", "format": "cell-based", "conditions": "Homo sapiens, 100 ng/mL TNF-α + 25 μM Z-VAD-FMK + Smac mimetic LCL161, 24 hours, cell viability", "procedure": "To evaluate the cell necrosis inhibitory activity of the compound according to the present invention, an experiment was conducted as follows.\nTo evaluate the efficacy of inhibiting cell necrosis under TNF-α-mediated cell death-inducing conditions, a HT-29 cell line (Korean Cell Line Bank Accession No. #30038) was cultured in RPMI-1640 (HyClone #SH3027.01) medium containing 10% fetal bovine serum (FBS) and 1% penicillin/streptomycin to analyze cell viability. More specifically, for testing, the cell line was seeded in a 96-well flat bottom plate (Corning #3903) at a concentration of 10,000 cells/well and incubated at 37° C. under a 5% CO2 condition for 24 hours. Each well was treated with 100 ng/mL TNF-α, 25 μM pan-caspase inhibitor (Z-VAD-FMK, Selleckchem #S8102), and 10 µM Smac mimetic LCL161 (Selleckchem #S7009) and allowed to react for 10 minutes. The compounds of Examples were treated at 11 concentrations (the highest concentration being 0.1 μM or 1 μM) with a 3-fold concentration gradient, and as a control, dimethyl sulfoxide (DMSO) was treated at a concentration of 0.05% (v/v), which is the same as those when the compounds were treated. The treated cells were incubated for 24 hours. To confirm the degree of cell viability, 100 μL of Cell Titer-Glo (Promega #G7573) was added to the medium of the cultured cells and cultured for additional 10 minutes, and then luminescence was measured using a microplate reader. Based on the […] of control cells that were not treated with the compound, the degree of cell necrosis inhibitory activity was calculated according to the treatment concentration of each compound. Here, the concentration at which the cell necrosis inhibitory activity was 50% was determined as an EC50 (nM) value and calculated using Prism (ver. 8.4.3 #GraphPad) software.", "units": {"EC50": "nM"}}
{"smiles": "Cc1ccc(-c2ccc3nc(NC(=O)C4CC4)sc3c2)cc1NC(=O)N1OCC[C@H]1c1ccc(C#N)cc1", "note": "[Example 93, (S)-3-(4-cyanophenyl)-N-(5-(2-(cyclopropanecarboxamido)benzo[d]thiazol-6-yl)-2-methylphenyl)isoxazolidine-2-carboxamide]", "EC50": 0.2}
{"smiles": "Cc1cc(F)c(-c2ccc3nc(N)nn3c2)cc1NC(=O)N1OCC[C@H]1c1ccccc1", "note": "[Example 34, (S)-N-(5-(2-amino-[1,2,4]triazolo[1,5-a]pyridin-6-yl)-4-fluoro-2-methylphenyl)-3-phenylisoxazolidine-2-carboxamide]", "EC50": 0.5}
{"smiles": "Cc1ncc(-c2ccc3nc(NC(=O)C4CC4)nn3c2)cc1NC(=O)N1OCC[C@H]1c1ccccc1", "note": "[Example 36, (S)-N-(5-(2-(cyclopropanecarboxamido)-[1,2,4]triazolo[1,5-a]pyridin-6-yl)-2-methylpyridin-3-yl)-3-phenylisoxazolidine-2-carboxamide]", "EC50": 0.6}
{"smiles": "Cc1ccc(-c2ccc3ncn(C)c3n2)cc1NC(=O)N1OCC[C@H]1c1ccccc1", "note": "[Example 143, (S)-N-(2-methyl-5-(3-methyl-3H-imidazo[4,5-b]pyridin-5-yl)phenyl)-3-phenylisoxazolidine-2-carboxamide]", "EC50": 5}
{"smiles": "Cc1ncc(-c2ccc3nc(N)nn3c2)cc1NC(=O)N1OCC[C@H]1c1ccc(Cl)c(C(F)(F)F)c1", "note": "[Example 44, (S)-N-(5-(2-amino-[1,2,4]triazolo[1,5-a]pyridin-6-yl)-2-methylpyridin-3-yl)-3-(4-chloro-3-(trifluoromethyl)phenyl)isoxazolidine-2-carboxamide]", "EC50": 4.1}
{"smiles": "Nc1nc2ccc(-c3ccc(F)c(NC(=O)N4OCC[C@H]4c4ccccc4)c3)cn2n1", "note": "[Example 96, (S)-N-(5-(2-amino-[1,2,4]triazolo[1,5-a]pyridin-6-yl)-2-fluorophenyl)-3-phenylisoxazolidine-2-carboxamide]", "EC50": 1.9}
{"smiles": "Cc1ccc(-c2ccc3nc(NC(=O)C4CC4)sc3n2)cc1NC(=O)N1OCC[C@H]1c1ccc(C#N)cc1", "note": "[Example 94, (S)-3-(4-cyanophenyl)-N-(5-(2-(cyclopropanecarboxamido)thiazolo[5,4-b]pyridin-5-yl)-2-methylphenyl)isoxazolidine-2-carboxamide]", "EC50": 0.3}
{"smiles": "Cc1ccc(-c2ccn3nc(N)nc3c2)cc1NC(=O)N1OCC[C@H]1c1ccccc1", "note": "[Example 61, (S)-N-(5-(2-amino-[1,2,4]triazolo[1,5-a]pyridin-7-yl)-2-methylphenyl)-3-phenylisoxazolidine-2-carboxamide]", "EC50": 0.2}
{"smiles": "COc1ncc(-c2csc3c(N)ncnc23)cc1NC(=O)N1OCC[C@H]1c1ccccc1", "note": "[Example 128, (S)-N-(5-(4-aminothieno[3,2-d]pyrimidine-7-yl)-2-methoxypyridin-3-yl)-3-phenylisoxazolidine-2-carboxamide]", "EC50": 38.2}
{"smiles": "Cc1ccc(-c2csc3c(N)ncnc23)cc1NC(=O)N1OCC[C@H]1c1ccccc1", "note": "[Example 122, (S)-N-(5-(4-aminothieno[3,2-d]pyrimidine-7-yl)-2-methylphenyl)-3-phenylisoxazolidine-2-carboxamide]", "EC50": 20.4}
{"smiles": "Cc1ncc(-c2ccn3nc(N)nc3c2)cc1NC(=O)N1OCC[C@H]1c1ccccc1", "note": "[Example 50, (S)-N-(5-(2-amino-[1,2,4]triazolo[1,5-a]pyridin-7-yl)-2-methylpyridin-3-yl)-3-phenylisoxazolidine-2-carboxamide]", "EC50": 1.3}
{"smiles": "Cc1ccc(-c2ccn3nc(N)nc3c2)cc1NC(=O)N1OCC[C@H]1c1ccc(F)cc1", "note": "[Example 64, (S)-N-(5-(2-amino-[1,2,4]triazolo[1,5-a]pyridin-7-yl)-2-methylphenyl)-3-(4-fluorophenyl)isoxazolidine-2-carboxamide]", "EC50": 0.2}
{"smiles": "COc1cccc([C@@H]2CCON2C(=O)Nc2cc(-c3ccc4nc(N)nn4c3)cnc2C)c1", "note": "[Example 45, (S)-N-(5-(2-amino-[1,2,4]triazolo[1,5-a]pyridin-6-yl)-2-methylpyridin-3-yl)-3-(3-methoxyphenyl)isoxazolidine-2-carboxamide]", "EC50": 4.6}
{"smiles": "CC(=O)Nc1nc2ccc(-c3cnc(C)c(NC(=O)N4OCC[C@H]4c4ccccc4)c3)cc2s1", "note": "[Example 28, (S)-N-(5-(2-acetamidobenzo[d]thiazol-6-yl)-2-methylpyridin-3-yl)-3-phenylisoxazolidine-2-carboxamide]", "EC50": 0.2}
{"smiles": "Nc1nc2ccc(-c3ccc(Cl)c(NC(=O)N4OCC[C@H]4c4ccccc4)c3F)cn2n1", "note": "[Example 105, (S)-N-(3-(2-amino-[1,2,4]triazolo[1,5-a]pyridin-6-yl)-6-chloro-2-fluorophenyl)-3-phenylisoxazolidine-2-carboxamide]", "EC50": 43.8}
{"smiles": "Cc1ncc(-c2ccc3nc(N)nn3c2)cc1NC(=O)N1OCC[C@H]1c1ccccc1", "note": "[Example 33, (S)-N-(5-(2-amino-[1,2,4]triazolo[1,5-a]pyridin-6-yl)-2-methylpyridin-3-yl)-3-phenylisoxazolidine-2-carboxamide]", "EC50": 1.2}
{"smiles": "COc1ncc(-c2ccc3nc(NC(C)=O)oc3c2)cc1NC(=O)N1OCC[C@H]1c1ccccc1", "note": "[Example 13, (S)-N-(5-(2-acetamidobenzo[d]oxazol-6-yl)-2-methoxypyridin-3-yl)-3-phenylisoxazolidine-2-carboxamide]", "EC50": 2.6}
{"smiles": "COc1ncc(-c2ccn3nc(N)nc3c2)cc1NC(=O)N1OCC[C@H]1c1cc(F)cc(F)c1", "note": "[Example 54, (S)-N-(5-(2-amino-[1,2,4]triazolo[1,5-a]pyridin-7-yl)-2-methoxypyridin-3-yl)-3-(3,5-difluorophenyl)isoxazolidine-2-carboxamide]", "EC50": 0.4}
{"smiles": "Cc1ccc(-c2ccc3nnc(C(F)(F)F)n3n2)cc1NC(=O)N1OCC[C@H]1c1ccccc1", "note": "[Example 108, (S)-N-(2-methyl-5-(3-(trifluoromethyl)-[1,2,4]triazolo[4,3-b]pyridazin-6-yl)phenyl)-3-phenylisoxazolidine-2-carboxamide]", "EC50": 29.8}
{"smiles": "COc1ncc(-c2ccc3nc(NC(=O)CO)cn3n2)cc1NC(=O)N1OCC[C@H]1c1ccccc1", "note": "[Example 5, (S)-N-(5-(2-(2-hydroxyacetamido)imidazo[1,2-b]pyridazin-6-yl)-2-methoxypyridin-3-yl)-3-phenylisoxazolidine-2-carboxamide]", "EC50": 2.9}
{"smiles": "CC(=O)Nc1nc2ccc(-c3cnc(C)c(NC(=O)N4OCC[C@H]4c4ccccc4)c3)cn2n1", "note": "[Example 35, (S)-N-(5-(2-acetamido-[1,2,4]triazolo[1,5-a]pyridin-6-yl)-2-methylpyridin-3-yl)-3-phenylisoxazolidine-2-carboxamide]", "EC50": 3.2}
{"smiles": "Cc1ncc(-c2ccc3nc(N)nn3c2)cc1NC(=O)N1OCC[C@H]1c1ccc(Cl)cc1", "note": "[Example 69, (S)-N-(5-(2-amino-[1,2,4]triazolo[1,5-a]pyridin-6-yl)-2-methylpyridin-3-yl)-3-(4-chlorophenyl)isoxazolidine-2-carboxamide]", "EC50": 0.4}
{"smiles": "Cc1ncc(-c2ccc3c(N)ncnn23)cc1NC(=O)N1OCC[C@H]1c1ccccc1", "note": "[Example 120, (S)-N-(5-(4-aminopyrrolo[2,1-f][1,2,4]triazin-7-yl)-2-methylpyridin-3-yl)-3-phenylisoxazolidine-2-carboxamide]", "EC50": 1}
{"smiles": "Cc1ncc(-c2ccc3nc(N)nn3c2)cc1NC(=O)N1OCC[C@H]1c1cc(F)cc(Cl)c1", "note": "[Example 52, (S)-N-(5-(2-amino-[1,2,4]triazolo[1,5-a]pyridin-6-yl)-2-methylpyridin-3-yl)-3-(3-chloro-5-fluorophenyl)isoxazolidine-2-carboxamide]", "EC50": 2.8}
{"smiles": "Cc1ccc(-c2ccn3nc(N)nc3c2)cc1NC(=O)N1OCC[C@H]1c1cc(F)cc(F)c1", "note": "[Example 63, (S)-N-(5-(2-amino-[1,2,4]triazolo[1,5-a]pyridin-7-yl)-2-methylphenyl)-3-(3,5-difluorophenyl)isoxazolidine-2-carboxamide]", "EC50": 0.2}
{"smiles": "COc1ncc(-c2ccc3nc(NC(C)=O)sc3c2)cc1NC(=O)N1OCC[C@H]1c1ccccc1", "note": "[Example 26, (S)-N-(5-(2-acetamidobenzo[d]thiazol-6-yl)-2-methoxypyridin-3-yl)-3-phenylisoxazolidine-2-carboxamide]", "EC50": 0.7}
{"smiles": "Cc1ccc(-c2ccn3nc(N)cc3c2)cc1NC(=O)N1CCOC[C@H]1c1ccccc1", "note": "[Example 136, (R)-N-(5-(2-aminopyrazolo[1,5-a]pyridin-5-yl)-2-methylphenyl)-3-phenylmorpholine-4-carboxamide]", "EC50": 5.4}
{"smiles": "COc1ncc(-c2cc(C(F)(F)F)c3c(N)ncnn23)cc1NC(=O)N1OCC[C@H]1c1ccccc1", "note": "[Example 129, (S)-N-(5-(4-amino-5-(trifluoromethyl)pyrrolo[2,1-f][1,2,4]triazin-7-yl)-2-methoxypyridin-3-yl)-3-phenylisoxazolidine-2-carboxamide]", "EC50": 3.6}
{"smiles": "Cc1ccc(-c2ccc3ncc(C#CC(C)(C)O)n3n2)cc1NC(=O)N1OCC[C@H]1c1ccccc1", "note": "[Example 117, (S)-N-(5-(3-(3-hydroxy-3-methylbut-1-yn-1-yl)imidazo[1,2-b]pyridazin-6-yl)-2-methylphenyl)-3-phenylisoxazolidine-2-carboxamide]", "EC50": 2.4}
